# Source: patent US20250304567A1, “PYRROLIDIONE DERIVATIVES AS INHIBITORS OF NF KAPPA B INDUCING KINASE” (priority 2022, published 2025)
# Where two headings read alike, the source gives them in different places.
# Key:
# [1] = molecular target: Recombinant Human NF-kappaB-Inducing Kinase (NIK/MAP3K14) (Homo sapiens, UniProt Q99558); assay: Inhibition of auto-phosphorylation of recombinant human NIK/MAP3K14 activity (AlphaScreen); format: biochemical; details: 5 μM ATP, 1 nM NIK, average if tested more than once
# Recombinant Human NF-kappaB-Inducing Kinase (NIK/MAP3K14), sequence (Q99558 whole entry): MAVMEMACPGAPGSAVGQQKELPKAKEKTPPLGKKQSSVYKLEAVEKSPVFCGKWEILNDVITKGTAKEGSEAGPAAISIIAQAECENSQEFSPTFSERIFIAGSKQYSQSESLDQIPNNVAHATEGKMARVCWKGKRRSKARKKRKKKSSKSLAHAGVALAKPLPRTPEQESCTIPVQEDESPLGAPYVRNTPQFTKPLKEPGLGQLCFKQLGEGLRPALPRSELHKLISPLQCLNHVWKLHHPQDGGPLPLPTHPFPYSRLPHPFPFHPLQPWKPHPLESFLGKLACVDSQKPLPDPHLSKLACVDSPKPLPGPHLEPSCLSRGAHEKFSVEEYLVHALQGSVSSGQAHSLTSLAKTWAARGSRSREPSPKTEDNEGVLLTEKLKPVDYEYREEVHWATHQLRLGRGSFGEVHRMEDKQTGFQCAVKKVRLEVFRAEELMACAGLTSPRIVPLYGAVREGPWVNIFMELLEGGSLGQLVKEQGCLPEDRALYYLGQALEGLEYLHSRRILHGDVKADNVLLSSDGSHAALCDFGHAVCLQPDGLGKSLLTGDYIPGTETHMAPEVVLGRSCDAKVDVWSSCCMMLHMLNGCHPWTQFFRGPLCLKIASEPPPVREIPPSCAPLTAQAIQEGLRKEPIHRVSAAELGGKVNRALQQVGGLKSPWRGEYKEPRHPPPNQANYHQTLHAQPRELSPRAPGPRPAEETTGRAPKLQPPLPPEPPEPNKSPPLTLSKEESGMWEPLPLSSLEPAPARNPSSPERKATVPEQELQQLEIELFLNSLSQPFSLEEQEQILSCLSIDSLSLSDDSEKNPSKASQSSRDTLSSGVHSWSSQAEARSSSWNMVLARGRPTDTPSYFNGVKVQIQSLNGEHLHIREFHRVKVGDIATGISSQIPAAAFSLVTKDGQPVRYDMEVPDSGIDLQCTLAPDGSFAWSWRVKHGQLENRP
# Procedure, shortened: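 AlphaScreen detection of phospho-Ser176/180 after 1 nM GST-NIK auto-phosphorylates for 2 h at 25 °C with 5 μM ATP (50 mM Tris pH 7.5, 0.7% DMSO). IC50s come from sigmoidal curves of % inhibition against log dose, using enzyme-free, ATP-free low controls and full-activity high controls.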
# [2] = tested on: p-IKKa levels in L363 (NIK translocated multiple myeloma) cells; assay: Effect of compounds on p-IKKa levels in L363 (NIK translocated multiple myeloma) cells (AlphaLISA SureFire Ultra p-IKKa Ser176/180); format: cell-based, human; details: average if tested more than once, read-out: Assay 2 IC50
# Procedure, shortened: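 Phospho-IKKa (Ser176/180) in lysates quantified by AlphaLISA after 6 h compound exposure, 11-point threefold dilutions, 0.3% DMSO. L363 cells were pre-stimulated overnight and assayed with 250 ng/ml BAFF and 10 μM MG132; % inhibition fitted sigmoidally for IC50, duplicate curves.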
# [3] = Homo sapiens, L-363, p-IKKa levels in L363 cells
SMILES,IC50 [1] [nM],"IC50 [2, 3] [nM]",IC50 ([2]; p-IKKa levels in L363 cells) [nM]
CN1CC[C@@](O)(c2cccc(-c3nc(-c4ccnc(NCCC(F)(F)F)n4)cs3)c2)C1=O [Example 236],< 100,> 501,
"COc1c(Nc2nccc(-c3csc(-c4cccc([C@]5(O)CCN(C)C5=O)c4)n3)n2)ccnc1C [Example 74, (R)-3-hydroxy-3-(3-(4-(2-((3-methoxy-2-methylpyridin-4-yl)amino)pyrimidin-4-yl)thiazol-2-yl)phenyl)-1-methylpyrrolidin-2-one]",100 to 500,> 501,
"CN1CC(F)(F)C(O)(c2cccc(-c3nc(-c4ccnc(Nc5ccn(C)n5)n4)cs3)c2)C1=O (single isomer, unassigned) [Example 36, 4,4-difluoro-3-hydroxy-1-methyl-3-(3-(4-(2-((1-methyl-1H-pyrazol-3-yl)amino)pyrimidin-4-yl)thiazol-2-yl)phenyl)pyrrolidin-2-one]",< 100,,100 to 500
"CN1CC[C@@](O)(c2cccc(-c3nc(-c4ccnc(NC5CCN(c6cnn(C)c6)C5)n4)cs3)c2)C1=O (stereo partly drawn) [Example 120, (R)-3-hydroxy-1-methyl-3-(3-(4-(2-(((R,S)-1-(1-methyl-1H-pyrazol-4-yl)pyrrolidin-3-yl)amino)pyrimidin-4-yl)thiazol-2-yl)phenyl)pyrrolidin-2-one]",100 to 500,> 501,
"CN1CC[C@@](O)(c2cccc(-c3nc(-c4ccnc(NC[C@@H]5CCCO5)n4)cs3)c2)C1=O [Example 122, (R)-3-hydroxy-1-methyl-3-(3-(4-(2-((((S)-tetrahydrofuran-2-yl)methyl)amino)pyrimidin-4-yl)thiazol-2-yl)phenyl)pyrrolidin-2-one]",< 100,> 501,
"Cc1cc(Nc2nccc(-c3csc(-c4cccc([C@]5(O)CCN(C)C5=O)c4)n3)n2)nn1C [Example 49, (R)-3-(3-(4-(2-((1,5-Dimethyl-1H-pyrazol-3-yl)amino)pyrimidin-4-yl)thiazol-2-yl)phenyl)-3-hydroxy-1-methylpyrrolidin-2-one]",< 100,100 to 500,
"CN1CC[C@@](O)(c2cccc(-c3nc(-c4ccnc(Nc5cc(C6CC6)nn5C)n4)cs3)c2)C1=O [Example 164, (R)-3-(3-(4-(2-((3-Cyclopropyl-1-methyl-1H-pyrazol-5-yl)amino)pyrimidin-4-yl)thiazol-2-yl)phenyl)-3-hydroxy-1-methylpyrrolidin-2-one]",< 100,100 to 500,
"CC(Nc1nccc(-c2nc(-c3cc([C@]4(O)CCN(C)C4=O)ccn3)cs2)n1)c1cnn(C)c1 (single isomer, unassigned) [Example 158, (R)-3-hydroxy-1-methyl-3-(2-(2-(2-(((R,S)-1-(1-methyl-1H-pyrazol-4-yl)ethyl)amino)pyrimidin-4-yl)thiazol-4-yl)pyrrolid-4-yl)pyrrolidine-2-one or (S)-3-hydroxy-1-methyl-3-(2-(2-(2-(((R,S)-1-(1-methyl-1H-pyrazol-4-yl)ethyl)amino)pyrimidin-4-yl)thiazol-4-yl)pyrrolid-4-yl)pyrrolidine-2-one]",< 100,100 to 500,
"CN1CC[C@@](O)(c2cccc(-c3csc(-c4ccnc(Nc5cnn(CC(C)(C)O)c5)n4)n3)c2)C1=O [Example 89, (R)-3-hydroxy-3-(3-(2-(2-((1-(2-hydroxy-2-methylpropyl)-1H-pyrazol-4-yl)amino)pyrimidin-4-yl)thiazol-4-yl)phenyl)-1-methylpyrrolidin-2-one]",< 100,< 100,
"CC(C)Oc1nn(C)cc1Nc1nccc(-c2csc(-c3cccc([C@]4(O)CCN(C)C4=O)c3)n2)n1 [Example 100, (R)-3-hydroxy-3-(3-(4-(2-((3-isopropoxy-1-methyl-1H-pyrazol-4-yl)amino)pyrimidin-4-yl)thiazol-2-yl)phenyl)-1-methylpyrrolidin-2-one]",< 100,< 100,
CN1CC[C@@](O)(c2cccc(-c3nc(-c4ccnc(Nc5ccnn5C)n4)cs3)c2)C1=O [Example 176],< 100,< 100,
"CN1CCC(O)(c2cc(F)cc(-c3csc(-c4ccnc(Nc5ccn(C)n5)n4)n3)c2)C1=O (single isomer, unassigned) [Example 26, 3-(3-fluoro-5-(2-(2-((1-methyl-1H-pyrazol-3-yl)amino)pyrimidin-4-yl)thiazol-4-yl)phenyl)-3-hydroxy-1-methylpyrrolidin-2-one]",> 501,,> 501
"CN1CC[C@@](O)(c2cccc(-c3nc(-c4ccnc(NC5CCC5)n4)cs3)c2)C1=O [Example 131, (R)-3-(3-(4-(2-(cyclobutylamino)pyrimidin-4-yl)thiazol-2-yl)phenyl)-3-hydroxy-1-methylpyrrolidin-2-one]",< 100,> 501,
"CN1CC[C@@](O)(c2cccc(-c3csc(-c4ccnc(Nc5cnn(CCO)c5)n4)n3)c2)C1=O [Example 83, (R)-3-hydroxy-3-(3-(2-(2-((1-(2-hydroxyethyl)-1H-pyrazol-4-yl)amino)pyrimidin-4-yl)thiazol-4-yl)phenyl)-1-methylpyrrolidin-2-one]",< 100,> 501,
"CN1CCC(O)(c2ccnc(-c3cccc(-c4ccnc(Nc5ccn(C)n5)n4)n3)c2)C1=O (racemic) [Example 31, (R,S)-3-Hydroxy-1-methyl-3-(6′-(2-((1-methyl-1H-pyrazol-3-yl)amino)pyrimidin-4-yl)-[2,2′-bipyridin]-4-yl)pyrrolidin-2-one]",> 501,> 501,
CN1CC[C@@](O)(c2cccc(-c3nc(-c4ccnc(NCc5ncccn5)n4)cs3)c2)C1=O [Example 218],100 to 500,> 501,
"Cc1nn(CC(F)F)cc1Nc1nccc(-n2ccc(-c3cc([C@]4(O)CCN(C)C4=O)ccn3)n2)n1 [Example 292, (R)-3-(2-(1-(2-((1-(2,2-Difluoroethyl)-3-methyl-1H-pyrazol-4-yl)amino)pyrimidin-4-yl)-1H-pyrazol-3-yl)pyridin-4-yl)-3-hydroxy-1-methylpyrrolidin-2-one]",< 100,< 100,
"CN1CC[C@@](O)(c2cccc(-c3csc(-c4ccnc(Nc5ccn(C)n5)n4)n3)c2)C1=O [Example 3, (R)-3-hydroxy-1-methyl-3-(3-(2-(2-((1-methyl-1H-pyrazol-3-yl)amino)pyrimidin-4-yl)thiazol-4-yl)phenyl)pyrrolidin-2-one]",< 100,< 100,
"CN1CC[C@@](O)(c2cccc(-c3nc(-c4ccnc(NC5CCCn6nccc65)n4)cs3)c2)C1=O (stereo partly drawn) [Example 123, (R)-3-hydroxy-1-methyl-3-(3-(4-(2-(((R,S)-4,5,6,7-tetrahydropyrazolo[1,5-a]pyridin-4-yl)amino)pyrimidin-4-yl)thiazol-2-yl)phenyl)pyrrolidin-2-one]",< 100,> 501,
CN1CC[C@@](O)(c2cccc(-c3nc(-c4ccnc(Nc5cnn(C)c5)n4)cs3)c2)C1=O [Example 177],< 100,< 100,
"Cc1c(CNc2nccc(-c3csc(-c4cccc([C@]5(O)CCN(C)C5=O)c4)n3)n2)cnn1C [Example 118, (R)-3-(3-(4-(2-(((1,5-dimethyl-1H-pyrazol-4-yl)methyl)amino)pyrimidin-4-yl)thiazol-2-yl)phenyl)-3-hydroxy-1-methylpyrrolidin-2-one]",< 100,> 501,
"CN1C(=O)[C@](O)(c2cncc(-c3csc(-c4ccnc(Nc5ccn(C)n5)n4)n3)c2)C[C@H]1C(F)(F)F (single isomer, unassigned) [Example 61]",< 100,100 to 500,
"CC(Nc1nccc(-c2nc(-c3cccc(C4(O)CCN(C)C4=O)c3)cs2)n1)c1cc[nH]n1 (single isomer, unassigned) [Example 42]",< 100,,> 501
CN1CC[C@@](O)(c2cccc(-c3nc(-c4ccnc(NC5CC6CC(O)C5C6)n4)cs3)c2)C1=O (stereo partly drawn) [Example 220],100 to 500,> 501,
"COc1ncccc1Nc1nccc(-c2csc(-c3cccc([C@]4(O)CCN(C)C4=O)c3)n2)n1 [Example 7, (R)-3-Hydroxy-3-(3-(4-(2-((2-methoxypyridin-3-yl)amino)pyrimidin-4-yl)thiazol-2-yl)phenyl)-1-methylpyrrolidin-2-one]",< 100,100 to 500,
"CN1CC[C@@](O)(c2cccc(-c3nc(-c4ccnc(Nc5ncccc5F)n4)cs3)c2)C1=O [Example 163, (R)-3-(3-(4-(2-((3-Fluoropyridin-2-yl)amino)pyrimidin-4-yl)thiazol-2-yl)phenyl)-3-hydroxy-1-methylpyrrolidin-2-one]",100 to 500,> 501,
"CCCn1ccc(Nc2nccc(-c3csc(-c4cccc([C@]5(O)CCN(C)C5=O)c4)n3)n2)n1 [Example 67, (R)-3-hydroxy-1-methyl-3-(3-(4-(2-((1-propyl-1H-pyrazol-3-yl)amino)pyrimidin-4-yl)thiazol-2-yl)phenyl)pyrrolidin-2-one]",< 100,100 to 500,
CN1CC[C@@](O)(c2cccc(-c3nc(-c4ccnc(NC5CCc6cccnc65)n4)cs3)c2)C1=O (stereo partly drawn) [Example 225],100 to 500,> 501,
CN1CC[C@@](O)(c2cccc(-c3nc(-c4ccnc(NC5CC6(CC(O)C6)C5)n4)cs3)c2)C1=O (stereo partly drawn) [Example 188],100 to 500,> 501,
"CCn1ccc(Nc2nccc(-c3csc(-c4cccc([C@]5(O)CCN(C)C5=O)c4)n3)n2)n1 [Example 76, (R)-3-(3-(4-(2-((1-ethyl-1H-pyrazol-3-yl)amino)pyrimidin-4-yl)thiazol-2-yl)phenyl)-3-hydroxy-1-methylpyrrolidin-2-one]",< 100,100 to 500,
